1 molecule from patent US10973933B2, “Nanoparticles for diagnosis and treatment of tumors” (GWANGJU INSTITUTE OF SCIENCE AND TECHNOLOGY, priority 2015, dated 2021) can be followed below.

The nature of series [1]: In vitro laser induced phototherapy, cell viability. The following applies: mouse, SCC7 cells, PB 80 μg/ml, ICG 10 μg/ml, read-out: cell viability without laser treatment. Type of series: cell-based. As to the method:
(§1) Next, the cells were completely cleaned and fresh medium was added to each of the wells. Next, the cells were irradiated with an 808 nm NIR laser beam for 5 minutes.
(§2) After laser irradiation, the cells were further cultured for 12 hours, and cell viability was measured by WST-1 analysis.

In series [2] the test system is SCC7 cells. Described as above. The series is classed as cell-based. The following applies: Mus musculus, SCC-7, light or radiation study, 5 min, 808 nm, 1 W/cm^2, 5 minutes, PB 80 μg/ml, ICG 10 μg/ml, read-out: cell viability after NIR laser irradiation. As to the method:
as §1, §2

Series [3] concerns SCC7 tumor. Briefly: In vivo and ex vivo NIR fluorescence bio-distribution (IVIS). Details: species or system mice. As for the experimental part:
The same group of mice was investigated as to NIR fluorescence signals by an in vivo imaging system (IVIS).
The free ICG solution (2 mg/kg) was injected into other mice as a control group for IVIS imaging. […] Gradual reduction of the signals means that free ICG molecules were quickly discharged from the bodies of the mice (FIG. 8b).
In-vivo bio-distribution of the PB-BSA-ICG nanoparticles and free ICG was analyzed by optical fluorescence imaging. […] Fluorescence signals in the mice subjected to injection of free ICG (2 mg/kg) were also recorded at time intervals similar to those set forth above.
The mice were sacrificed 24 hours after injection, and fluorescence signals (liver, lung, spleen, heart, and kidney) from resected tumors and major organs were measured.

The subject of series [4] is SCC7 tumor. The series is classed as in vivo. As for the experimental part:
24 hours after injection, tumor sites of all of the mice were irradiated with a continuous wave NIR laser beam (808 nm, 1 W/cm^2, 10 minutes) for phototherapy, and real-time temperature increase during laser irradiation was monitored by an IR thermal camera (FIGS. 10a and 10b).
In-vivo phototherapy: The tumor-xenograft mice were produced in the same manner as described above. The mice, in which tumors had grown to a desired volume (about 100 mm^3), were divided into four groups, that is, a saline solution group, a free ICG group, a PB-BSA nanoparticle group, and PB-BSA-ICG nanoparticle group. According to the groups, each sample was injected into a vein of the corresponding mouse (administration of 2 mg/kg of ICG, administration of 20 mg/kg of PB).
24 hours after injection, the tumor of each of the mice was exposed to an 808 nm NIR laser beam (1 W/cm^2) for 10 minutes, real-time temperature change of the tumor region during laser treatment was monitored by an IR thermal imaging system. The size of the tumor after treatment was measured at a specific time point using a digital caliper.

Series [5] has as its system SCC7 cells. Briefly: Intracellular singlet oxygen generation with H2DCF-DA probe. The series is classed as cell-based. The following applies: SCC7, after 808 nm laser irradiation. As for the experimental part:
Further, free ICG has photodynamic properties and can generate singlet oxygen (^1O2) when exposed to an 808 nm NIR laser beam. Generation of intracellular singlet oxygen (^1O2) was analyzed using 2′,7′-dichlorodihydrofluorescein diacetate (H2DCF-DA) dye as a reactive oxygen species (ROS) probe.

Series [6] is described as follows: Photothermal properties of solutions under 808 nm NIR laser. The following applies: 1 W/cm^2, ICG 10 μg/ml. As for the experimental part: 500 μl of each of the solutions was placed in a centrifuge tube and irradiated with an NIR laser beam at a power density of 1 W/cm^2 and temperature change of the solutions receiving the laser beam was measured in real time by an infrared (IR) thermal imaging system (FLIR SC-300, FLIR Systems Inc., Danderyd, Sweden).

[7] abbreviates: 808 nm, 1 W/cm^2, 10 minutes, 24 hours after injection.
The mark [8] stands for this setting: repeated laser irradiation, 3 minutes per cycle.

The viability is the share of living cells, or the viability signal relative to a control. Consider `CC1(C)C(/C=C/C=C/C=C/C=C2\N(CCCCS(=O)(=O)O)c3ccc4ccccc4c3C2(C)C)=[N+](CCCCS(=O)(=O)[O-])c2ccc3ccccc3c21` [free ICG, Indocyanine green], for which the viability at 24 h, 10 μg/ml in series [1] was around 100%. The viability at 10 µg/mL in the series on SCC7 cells [2] was 55%. In the series on SCC7 tumor [3] (3 hours after injection, 2 mg/kg), the “in vivo NIR fluorescence signal distribution” value is recorded as “strong signals at liver sites”. Also, in the series with SCC7 tumor [3] (24 hours after injection), the “ex vivo fluorescence signals of livers” value is reported as “significantly high fluorescence signals” and the “ex vivo fluorescence signals of tumors” value is given as “low signals”. In the series on SCC7 tumor [4] (setting [7]), the “average temperature increase of tumor” value was “about 6 °C” and the final tumor temperature was determined as 42 °C. Further, in the series on SCC7 tumor [4] (monitored for 14 days, ICG 2 mg/kg, PB 20 mg/kg), the “tumor response after laser treatment” value was “did not exhibit meaningful tumor regression”. In addition, the “intracellular ^1O2 generation (green fluorescence of H2DCF-DA)” value in the series on SCC7 cells [5] is reported as “intracellular green fluorescence signals were observed”. For the same molecule, in series [6] (laser irradiation for 5 minutes, 808 nm, PB 80 μg/ml), the temperature increase turned out to be 10 °C. In series [6] (setting [8]), the “temperature increase, first cycle” value was “about 10 °C”; the “temperature increase, second cycle” value is “about 6 °C”; the “temperature increase, third cycle” value worked out at 2.5 °C.
